Here are results for 26 compounds from US9624229B2, “Pyrimidine-2-amine compounds and their use as inhibitors of JAK kinases” (Rigel Pharmaceuticals, Inc., priority 2008, dated 2017).

SMILES strings stand for the structures.

Ba/F3 V617F cells, sequence (O60674 whole entry V617F): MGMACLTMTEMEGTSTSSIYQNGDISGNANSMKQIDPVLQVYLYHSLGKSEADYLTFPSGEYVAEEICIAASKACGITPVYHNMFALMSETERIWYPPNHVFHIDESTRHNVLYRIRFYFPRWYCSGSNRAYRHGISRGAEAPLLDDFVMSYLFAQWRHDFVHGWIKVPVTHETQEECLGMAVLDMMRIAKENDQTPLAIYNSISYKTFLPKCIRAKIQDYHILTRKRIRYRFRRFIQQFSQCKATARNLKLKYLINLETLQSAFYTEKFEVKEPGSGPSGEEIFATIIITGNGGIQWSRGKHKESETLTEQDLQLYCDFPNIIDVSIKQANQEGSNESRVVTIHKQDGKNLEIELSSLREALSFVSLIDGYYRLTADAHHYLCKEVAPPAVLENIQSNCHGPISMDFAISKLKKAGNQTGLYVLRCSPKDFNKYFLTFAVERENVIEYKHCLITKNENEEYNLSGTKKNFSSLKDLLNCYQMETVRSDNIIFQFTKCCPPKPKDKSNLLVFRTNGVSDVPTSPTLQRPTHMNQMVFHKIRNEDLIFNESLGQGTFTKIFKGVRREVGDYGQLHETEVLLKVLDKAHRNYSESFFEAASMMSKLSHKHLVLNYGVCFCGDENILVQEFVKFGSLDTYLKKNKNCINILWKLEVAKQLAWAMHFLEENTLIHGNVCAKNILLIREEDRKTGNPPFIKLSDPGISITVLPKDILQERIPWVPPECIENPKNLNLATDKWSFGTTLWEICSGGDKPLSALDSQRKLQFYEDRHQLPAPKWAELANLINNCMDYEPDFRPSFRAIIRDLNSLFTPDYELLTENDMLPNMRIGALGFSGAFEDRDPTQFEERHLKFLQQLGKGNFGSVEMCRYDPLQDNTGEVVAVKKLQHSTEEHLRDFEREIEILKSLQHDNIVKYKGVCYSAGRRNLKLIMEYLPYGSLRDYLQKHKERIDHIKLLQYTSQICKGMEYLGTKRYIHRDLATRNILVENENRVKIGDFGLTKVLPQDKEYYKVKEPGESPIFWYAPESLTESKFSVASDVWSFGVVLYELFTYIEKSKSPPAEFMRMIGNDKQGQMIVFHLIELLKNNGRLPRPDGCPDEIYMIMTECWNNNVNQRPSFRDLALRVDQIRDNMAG

One experiment concerns the target Ba/F3 V617F cells (Homo sapiens, UniProt O60674, V617F, cells depend on it). The experiment in a line: Proliferation assay (Cell Titer-Glo, 72 h) utilizing Ba/F3 V617F cells. It counts as cell-based, mouse. The conditions noted are these: Ba/F3 V617F cells, proliferation, level of activity given as class symbol, read-out: IC50 (the source's name). The essentials:
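Readout is CellTiter-Glo luminescence after 72 h at 37 °C, giving IC50. Cells: Ba/F3 V617F, 1×10^5 cells/mL in RPMI with 10% FBS, treated in duplicate with 3-fold dilution series made from 5 mM DMSO stock, 1:250 in 5% FBS medium, added at 2×.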
`Cc1cc(Nc2nccc(-c3cnc4c(c3)OCCN4C)n2)ccc1N1C[C@@H]2C[C@H]1CO2` [compound 195, 4-(4-methyl-3,4-dihydro-2H-pyrido[3,2-b][1,4]oxazin-7-yl)-N-(3-methyl-4-((1S,4S)-5-oxa-2-azabicyclo[2.2.1]heptan-2-yl)phenyl)pyrimidin-2-amine]: the GI50 was less than 1000 nM. The same measure, in the same setting: the same measure for `Cc1cc(Nc2nccc(-c3ccc(N4CCOC(CN(C)C)C4)nc3)n2)ccc1N1C[C@@H]2C[C@H]1CN2C` (stereo partly drawn) [compound 189, 4-(6-(2-(dimethylamino)methylmorpholin-4-yl)pyridin-3-yl)-N-(3-methyl-4-((1S,4S)-5-methyl-2,5-diazabicyclo[2.2.1]heptan-2-yl)phenyl)pyrimidin-2-amine]: less than 1000 nM. Still for that read-out and setting: the same measure for `Cc1cc(Nc2nccc(-c3cnc(N)c(CCCC(=O)OC(C)C)c3)n2)ccc1N1C[C@@H]2C[C@H]1CN2C` [compound 253, 4-(5-(1-methylethoxy)carbonylpropyl-6-aminopyridin-3-yl)-N-(3-methyl-4-((1S,4S)-5-methyl-2,5-diazabicyclo[2.2.1]heptan-2-yl)phenyl)pyrimidin-2-amine]: less than 1000 nM; for `CN1C[C@@H]2C[C@H]1CN2c1ccc(Nc2nccc(-c3cnc4c(c3)OC(C)(C)C(=O)N4)n2)cc1Cl` [compound 248, 4-(2,2-dimethyl-3-oxo-3,4-dihydro-2H-pyrido[3,2-b][1,4]oxazin-7-yl)-N-(3-chloro-4-((1S,4S)-5-methyl-2,5-diazabicyclo[2.2.1]heptan-2-yl)phenyl)pyrimidin-2-amine]: less than 1000 nM; for `Cc1cc(Nc2nccc(-c3ccc(N4CCSCC4)nc3)n2)ccc1N1C[C@@H]2C[C@H]1CN2C` [compound 230, 4-(6-(thiamorpholin-4-yl)pyridin-3-yl)-N-(3-methyl-4-((1S,4S)-5-methyl-2,5-diazabicyclo[2.2.1]heptan-2-yl)phenyl)pyrimidin-2-amine]: less than 1000 nM. As for `Cc1cc(Nc2nccc(-c3ccc(N4C[C@@H](C)O[C@@H](C)C4)nc3)n2)ccc1N1C[C@@H]2C[C@H]1CN2C` [compound 187, 4-(6-(cis-2,6-dimethylmorpholin-4-yl)pyridin-3-yl)-N-(3-methyl-4-((1S,4S)-5-methyl-2,5-diazabicyclo[2.2.1]heptan-2-yl)phenyl)pyrimidin-2-amine], the GI50 is less than 1000 nM. On the same count and under the same terms, the figure for `Cc1cc(Nc2nccc(-c3ccc(N4C[C@H]5C[C@@H]4CO5)nc3)n2)ccc1N1C[C@@H]2C[C@H]1CN2C` [compound 265, 4-(6-((1R,4R)-2-oxa-5-azabicyclo[2.2.1]heptan-5-yl)pyridin-3-yl)-N-(3-methyl-4-((1S,4S)-5-methyl-2,5-diazabicyclo[2.2.1]heptan-2-yl)phenyl)pyrimidin-2-amine] is less than 1000 nM. On the same count and under the same terms, the figure for `CN1C[C@@H]2C[C@H]1CN2c1ccc(Nc2nccc(-c3ccc4c(c3)OC(C)(C)C(=O)N4)n2)cc1C#N` [compound 271, 4-(2,2-dimethyl-3-oxo-3,4-dihydro-2H-benzo[b][1,4]oxazin-7-yl)-N-(3-cyano-4-((1S,4S)-5-methyl-2,5-diazabicyclo[2.2.1]heptan-2-yl)phenyl)pyrimidin-2-amine] is less than 1000 nM. `CCCNc1ccc(-c2ccnc(Nc3ccc(N4C[C@@H]5C[C@H]4CN5C)c(C)c3)n2)cn1` [compound 188, 4-(6-(propylamino)pyridin-3-yl)-N-(3-methyl-4-((1S,4S)-5-methyl-2,5-diazabicyclo[2.2.1]heptan-2-yl)phenyl)pyrimidin-2-amine]: the GI50 was less than 1000 nM. In the case of `Cc1cc(Nc2nccc(-c3ccc(N4CCOCC4)nc3)n2)ccc1N1C[C@@H]2C[C@H]1CN2C1CC1` [compound 254, 4-(6-(morpholin-4-yl)pyridin-3-yl)-N-(3-methyl-4-((1S,4S)-5-cyclopropyl-2,5-diazabicyclo[2.2.1]heptan-2-yl)phenyl)pyrimidin-2-amine], the GI50 is less than 1000 nM. For the compound `Cc1cc(Nc2nccc(-c3ccc4c(ccn4-c4ccncc4)c3)n2)ccc1N1C[C@@H]2C[C@H]1CN2CC(C)C` [compound 235, 4-(1-(pyridin-4-yl)-1H-indol-5-yl)-N-(3-methyl-4-((1S,4S)-5-isobutyl-2,5-diazabicyclo[2.2.1]heptan-2-yl)phenyl)pyrimidin-2-amine], the GI50 is less than 1000 nM. Turning to `Cc1cc(Nc2nccc(-c3ccc(N4CCOCC4)nc3)n2)ccc1N1C[C@@H]2C[C@H]1CN2C(=N)N` [compound 199, 4-(6-(morpholin-4-yl)pyridin-3-yl)-N-(3-methyl-4-((1S,4S)-5-amidino-2,5-diazabicyclo[2.2.1]heptan-2-yl)phenyl)pyrimidin-2-amine], the GI50 lay in the range of 1000 to 10000 nM. In the case of `CS(=O)(=O)N1C[C@@H]2C[C@H]1CN2c1ccc(Nc2nccc(-c3ccc(N4CCOCC4)nc3)n2)cc1Cl` [compound 257, 4-(6-(morpholin-4-yl)pyridin-3-yl)-N-(3-chloro-4-((1S,4S)-5-(methylsulfonyl)-2,5-diazabicyclo[2.2.1]heptan-2-yl)phenyl)pyrimidin-2-amine], the GI50 is less than 1000 nM.

Still in this experiment, the particulars now being: Ba/F3 V617F cells, proliferation, level of activity to inhibit JAK2, read-out: IC50 (the source's name).
In the case of `CN1CCOc2cc(-c3ccnc(Nc4ccc(N5C[C@@H]6C[C@H]5CN6C)cc4)n3)cnc21` [compound 185, 4-(4-methyl-3,4-dihydro-2H-pyrido[3,2-b][1,4]oxazin-7-yl)-N-(4-((1S,4S)-5-methyl-2,5-diazabicyclo[2.2.1]heptan-2-yl)phenyl)pyrimidin-2-amine], the GI50 is less than 1000 nM. On the same count and under the same terms, the same measure for `Cc1cc(Nc2nccc(-c3ccc(C#N)nc3)n2)ccc1N1C2CCC1CC2` [compound 112, 4-(6-cyanopyridin-3-yl)-N-(3-methyl-4-(7-azabicyclo[2.2.1]heptan-7-yl)phenyl)pyrimidin-2-amine]: 1000 to 10000 nM; for `Cc1cc(Nc2nccc(-c3cnc4c(c3)OC(C)(C)C(=O)N4)n2)ccc1N1C[C@@H]2C[C@H]1CN2S(C)(=O)=O` [compound 29, 4-(2,2-dimethyl-3-oxo-3,4-dihydro-2H-pyrido[3,2-b][1,4]oxazin-7-yl)-N-(3-methyl-4-((1S,4S)-5-(methylsulfonyl)-2,5-diazabicyclo[2.2.1]heptan-2-yl)phenyl)pyrimidin-2-amine]: less than 1000 nM; for `Cc1cc(Nc2nccc(-c3cnc(N4CCOCC4)nc3)n2)ccc1N1C[C@@H]2C[C@H]1CO2` [compound 42, 4-(2-(morpholin-4-yl)pyrimidin-5-yl)-N-(3-methyl-4-((1S,4S)-5-oxa-2-azabicyclo[2.2.1]heptan-2-yl)phenyl)pyrimidin-2-amine]: 1000 to 10000 nM. Still for that read-out and setting: the figure for `CCN1C[C@@H]2C[C@H]1CN2c1ccc(Nc2nccc(-c3ccc(N4CCOCC4)nc3)n2)cc1C` [compound 25, 4-(6-(morpholin-4-yl)pyridin-3-yl)-N-(3-methyl-4-((1S,4S)-5-ethyl-2,5-diazabicyclo[2.2.1]heptan-2-yl)phenyl)pyrimidin-2-amine] is less than 1000 nM; for `Cc1cc(Nc2nccc(-c3cnc4c(c3)OC(C)(C)C(=O)N4)n2)ccc1N1CCN2CCC1CC2` [compound 160, 4-(2,2-dimethyl-3-oxo-3,4-dihydro-2H-pyrido[3,2-b][1,4]oxazin-7-yl)-N-(3-methyl-4-(1,4-diazabicyclo[3.2.2]nonan-4-yl)phenyl)pyrimidin-2-amine] it is less than 1000 nM; for `CN1C[C@@H]2C[C@H]1CN2c1ccc(Nc2nccc(-c3ccc(NCc4ccccc4)nc3)n2)cc1F` [compound 81, 4-(6-(benzylamino)pyridin-3-yl)-N-(3-fluoro-4-((1S,4S)-5-methyl-2,5-diazabicyclo[2.2.1]heptan-2-yl)phenyl)pyrimidin-2-amine] it is less than 1000 nM.

As to `Cc1cc(Nc2ncc(C)c(-c3ccc(N4CCOCC4)nc3)n2)ccc1N1C[C@@H]2C[C@H]1CN2C` [compound 67, 5-methyl-4-(6-(morpholin-4-yl)pyridin-3-yl)-N-(3-methyl-4-((1S,4S)-5-methyl-2,5-diazabicyclo[2.2.1]heptan-2-yl)phenyl)pyrimidin-2-amine], the GI50 is less than 1000 nM. The same measure, in the same setting: the figure for `CN1C[C@@H]2C[C@H]1CN2c1ccc(Nc2nccc(-c3ccc(N4CCOCC4)nc3)n2)cc1C(F)(F)F` [compound 97, 4-(6-(morpholin-4-yl)pyridin-3-yl)-N-(3-trifluoromethyl-4-((1S,4S)-5-methyl-2,5-diazabicyclo[2.2.1]heptan-2-yl)phenyl)pyrimidin-2-amine] is less than 1000 nM. With `CC(=O)Nc1ccc(-c2ccnc(Nc3ccc(N4C[C@@H]5C[C@H]4CN5C)c(C)c3)n2)cn1` [compound 132, 4-(6-(acetamido)pyridin-3-yl)-N-(3-methyl-4-((1S,4S)-5-methyl-2,5-diazabicyclo[2.2.1]heptan-2-yl)phenyl)pyrimidin-2-amine], the GI50 was less than 1000 nM. As to `Cc1cc(Nc2nccc(-c3ccc(-c4ncc(-c5ccc(N(C)C)cc5)o4)cc3)n2)ccc1N1C[C@@H]2C[C@H]1CN2C` [compound 104, 4-(4-(5-(4-dimethylaminophenyl)oxazol-2-yl)phenyl)-N-(3-methyl-4-((1S,4S)-5-methyl-2,5-diazabicyclo[2.2.1]heptan-2-yl)phenyl)pyrimidin-2-amine], the GI50 fell in the range of 1000 to 10000 nM. Consider `CN1C[C@@H]2C[C@H]1CN2c1ccc(Nc2nccc(-c3cnc4c(c3)OCCN4)n2)cc1C(F)(F)F` [compound 98, 4-(3,4-dihydro-2H-pyrido[3,2-b][1,4]oxazin-7-yl)-N-(3-trifluoromethyl-4-((1S,4S)-5-methyl-2,5-diazabicyclo[2.2.1]heptan-2-yl)phenyl)pyrimidin-2-amine], for which the GI50 is less than 1000 nM.

The experiment is the same for the next values; noted with them: inhibition of JAK2 activity, proliferation of Ba/F3 V617F cells, read-out: IC50 (the source's name).
Turning to `CN(C)c1ccc(-c2ccnc(Nc3ccc(N4C[C@@H]5C[C@H]4CN5C)nc3)n2)cc1` [compound 56, 4-(4-(dimethylamino)phenyl)-N-(6-((1S,4S)-5-methyl-2,5-diazabicyclo[2.2.1]heptan-2-yl)pyridin-3-yl)pyrimidin-2-amine], the GI50 lay in the range of 1000 to 10000 nM.
